Measured values: patent US20120115896A1, “ISOGENIC HUMAN CELL LINES COMPRISING MUTATED CANCER ALLELES AND PROCESS USING THE CELL LINES” (priority 2008, published 2012)
Read-outs that look alike come from different tables or passages of the source.

Key:
[1] = system: hTERT-HME1 cells carrying KRAS (G13D) KI; assay: Drug assay: cell viability by ATP content (96 h), KI versus parental cells; ΔKI pharmarray analysis
[2] = system: hTERT-HME1 cells carrying EGFR (delE746-A750) KI; assay: Drug assay: cell viability by ATP content (CellTiter-Glo, 96 h), KI versus parental cells; ΔKI pharmarray analysis
[3] = system: hTERT-HME1 DKI cells carrying PIK3CA (H1047R) and EGFR (delE746-A750); assay: Drug assay: cell viability by ATP content (96 h), DKI versus parental cells; ΔKI pharmarray analysis
[4] = system: hTERT-HME1 cells carrying PIK3CA (E545K and H1047R) KI; assay: Drug assay: cell viability by ATP content (96 h) and Hoechst/propidium iodide staining, KI versus parental cells; ΔKI pharmarray analysis
[5] = system: hTERT-HME1 cells carrying BRAF (V600E) KI; assay: Drug assay: cell viability by ATP content (96 h), KI versus parental cells; ΔKI pharmarray analysis; details: for pharmarray: differential response of BRAF mutated cells versus WT: hTERT-HME1, FIG. 5H

COc1ccc2c(c1)c(CC(=O)N1CCOCC1)c(C)n2C(=O)c1ccc(Cl)cc1 [IMMA (BML-190)]
ΔKI KRAS [1]: 0 | ΔKI KRAS ([1]; Log(M) −3.90): 0 | ΔKI EGFR [2]: 0 | ΔKI EGFR ([2]; Log(M) −3.90): 0 | ΔKI PIK3CA + EGFR [3]: 0 | ΔKI PIK3CA + EGFR ([3]; Log(M) −3.90): 0 | ΔKI PIK3CA [4]: 0 | ΔKI PIK3CA ([4]; Log(M) −3.90): 0.72 | ΔKI BRAF [5]: 0 | ΔKI BRAF ([5]; Log(M) −3.90): 0

CCCCC/C=C\C/C=C\C/C=C\C/C=C\CCC(C)C(=O)NCCF (centres unmarked) [Met-F-AEA]
ΔKI KRAS [1]: 0 | ΔKI EGFR [2]: 0 | ΔKI PIK3CA + EGFR [3]: 0 | ΔKI PIK3CA [4]: 0 | ΔKI BRAF ([5]; listed as OGC-079): 0.3

CC[C@H](C)C(=O)O[C@H]1CCC=C2C=C[C@H](C)[C@H](CC[C@@H]3C[C@@H](O)CC(=O)O3)[C@H]21 [mevastatin, Mevastatin]
pharmarray: differential response of BRAF mutated cells versus WT [5]: more resistant

N.N.[Cl][Pt][Cl] [Cisplatin]
ΔKI KRAS ([1]; Log(M) −4.70): 0 | ΔKI KRAS ([1]; Log(M) −5.00): 0 | ΔKI KRAS ([1]; Log(M) −5.70): 0 | ΔKI KRAS ([1]; Log(M) −6.00): 0 | ΔKI KRAS ([1]; Log(M) −6.70): 0 | ΔKI KRAS ([1]; Log(M) −7.00): 0 | ΔKI EGFR ([2]; Log(M) −4.70): 0 | ΔKI EGFR ([2]; Log(M) −5.00): 4.84 | ΔKI EGFR ([2]; Log(M) −5.70): 0 | ΔKI EGFR ([2]; Log(M) −6.00): 0 | ΔKI EGFR ([2]; Log(M) −6.70): 0 | ΔKI EGFR ([2]; Log(M) −7.00): 0 | ΔKI PIK3CA + EGFR ([3]; Log(M) −4.70): 0 | ΔKI PIK3CA + EGFR ([3]; Log(M) −5.00): 4.9 | ΔKI PIK3CA + EGFR ([3]; Log(M) −5.70): 2.16 | ΔKI PIK3CA + EGFR ([3]; Log(M) −6.00): 0.7 | ΔKI PIK3CA + EGFR ([3]; Log(M) −6.70): 0 | ΔKI PIK3CA + EGFR ([3]; Log(M) −7.00): −1.32 | ΔKI PIK3CA ([4]; Log(M) −4.70): 0 | ΔKI PIK3CA ([4]; Log(M) −5.00): 0 | ΔKI PIK3CA ([4]; Log(M) −5.70): 0 | ΔKI PIK3CA ([4]; Log(M) −6.00): 0 | ΔKI PIK3CA ([4]; Log(M) −6.70): 0 | ΔKI PIK3CA ([4]; Log(M) −7.00): 0 | ΔKI BRAF ([5]; Log(M) −4.70): 3.82 | ΔKI BRAF ([5]; Log(M) −5.00): 0 | ΔKI BRAF ([5]; Log(M) −5.70): 7.62 | ΔKI BRAF ([5]; Log(M) −6.00): 0 | ΔKI BRAF ([5]; Log(M) −6.70): 0 | ΔKI BRAF ([5]; Log(M) −7.00): 0

c1cc(-c2cnn3cc(-c4ccc(OCCN5CCCCC5)cc4)cnc23)ccn1 [Compound C]
ΔKI KRAS [1]: 0 | ΔKI KRAS ([1]; Log(M) −4.70): 0 | ΔKI EGFR [2]: 0 | ΔKI EGFR ([2]; Log(M) −4.70): 0 | ΔKI PIK3CA + EGFR [3]: 0 | ΔKI PIK3CA + EGFR ([3]; Log(M) −4.70): 0 | ΔKI PIK3CA [4]: 0 | ΔKI PIK3CA ([4]; Log(M) −4.70): 0 | ΔKI BRAF [5]: 0 | ΔKI BRAF ([5]; Log(M) −4.70): 0

CC[C@H](C)C(=O)O[C@H]1C[C@@H](C)C=C2C=C[C@H](C)[C@H](CC[C@@H]3C[C@@H](O)CC(=O)O3)[C@H]21 [lovastatin, Lovastatin]
pharmarray: differential response of BRAF mutated cells versus WT [5]: more resistant

COc1ccc2c(c1)c(CC(=O)O)c(C)n2C(=O)c1ccc(Cl)cc1 [indomethacin, Indomethacin]
extended analysis of effect on PIK3CA KI versus WT cells (viability, apoptosis) ([4]; hTERT-HME1, 96 h, ATP assay, Hoechst/propidium iodide, FIG. 19): acts preferentially on cells carrying the PIK3CA mutation with both anti-proliferative and pro-apoptotic effects | pharmarray: differential response of PIK3CA mutated cells versus WT ([4]; hTERT-HME1, FIG. 5G): unexpectedly active on PIK3CA mutated cells

O=c1c(-c2ccc(O)cc2)coc2cc(O)cc(O)c12 [genistein, Genistein]
pharmarray: differential response of EGFR mutated cells versus WT [2]: EGFR sensitive drug cluster

Erlotinib mesylate
pharmarray: differential response of KRAS mutated cells versus WT ([1]; hTERT-HME1, FIG. 5H): resistant | growth inhibition of EGFR delE746-A750 KI versus WT cells [2]: preferentially inhibited the growth | pharmarray: differential response of EGFR mutated cells versus WT [2]: inhibit EGFR mutated cells selectively | IC50 ([2]; read-out: IC50 values of erlotinib in EGFR mutant cells): 250 ± 140 nM | sensitization in DKI cells containing both EGFR and PIK3CA alterations [3]: abrogates the sensitization seen with the EGFR KI alone | pharmarray: differential response of BRAF mutated cells versus WT [5]: resistant

O=C1CCC(N2C(=O)c3ccccc3C2=O)C(=O)N1 (centres unmarked) [OGC-065]
ΔKI KRAS [1]: 0 | ΔKI KRAS ([1]; Log(M) −2.05): 0 | ΔKI KRAS ([1]; Log(M) −3.35): 0 | ΔKI EGFR [2]: 0 | ΔKI EGFR ([2]; Log(M) −2.05): 0 | ΔKI EGFR ([2]; Log(M) −3.35): −0.68 | ΔKI PIK3CA + EGFR ([3]; Log(M) −2.05): 0 | ΔKI PIK3CA + EGFR ([3]; Log(M) −3.35): −0.8 | ΔKI PIK3CA [4]: 0 | ΔKI PIK3CA ([4]; Log(M) −2.05): 1.9 | ΔKI PIK3CA ([4]; Log(M) −3.35): 0 | ΔKI BRAF [5]: 0 | ΔKI BRAF ([5]; Log(M) −2.05): 0 | ΔKI BRAF ([5]; Log(M) −3.35): 0

COc1ccc(-c2cc(=O)c3c(O)c(OC)c(O)cc3o2)cc1OC [Eupatiline]
ΔKI KRAS [1]: 0 | ΔKI KRAS ([1]; Log(M) −3.97): 0 | ΔKI EGFR [2]: 0 | ΔKI EGFR ([2]; Log(M) −3.97): 0 | ΔKI PIK3CA + EGFR [3]: 0 | ΔKI PIK3CA + EGFR ([3]; Log(M) −3.97): 0 | ΔKI PIK3CA [4]: −1.66 | ΔKI PIK3CA ([4]; Log(M) −3.97): 0 | ΔKI BRAF [5]: −0.1 | ΔKI BRAF ([5]; Log(M) −3.97): 2.9

O=c1[nH]cc(F)c(=O)[nH]1 [5-FU]
ΔKI KRAS [1]: 0 | ΔKI EGFR [2]: 0 | ΔKI PIK3CA + EGFR [3]: 0 | ΔKI PIK3CA [4]: 0 | ΔKI BRAF ([5]; listed as OGC-083): 0
